Source: patent US20230266302A1, “SYNTHESIS AND USE OF N-BENZYL SULFONAMIDES” (THE UNIVERSITY OF TULSA, priority 2020, published 2023)

Each compound was assayed on PC3 (prostate cancer) (assay: ATP level assay (CellTiter-Glo), percent of control). Conditions: 2 h; compound alone, 100 uM, two hour incubation, control DMSO; read-out: POC (percent of control) PC3.
Type: cell-based

SMILES | activity at 100 µM [%]
O=S(=O)(NCc1cscn1)c1ccc(Cl)cc1 [Compound 18, 4-chloro-N-(1,3-thiazol-4-ylmethyl)benzenesulfonamide] | 74

Same assay, conditions: compound 100 uM + 2DG (about 10-20 mM), two hour incubation

SMILES | POC (percent of control) PC3
O=S(=O)(NCc1cscn1)c1ccc(Cl)cc1 [Compound 18, 4-chloro-N-(1,3-thiazol-4-ylmethyl)benzenesulfonamide] | 94% of control

Same assay, conditions: compound 100 uM + rotenone (approximately 1.25 μM), two hour incubation

SMILES | POC (percent of control) PC3
O=S(=O)(NCc1cscn1)c1ccc(Cl)cc1 [Compound 18, 4-chloro-N-(1,3-thiazol-4-ylmethyl)benzenesulfonamide] | 97.2% of control

Each compound was assayed on NCI-H196 (lung cancer) in the same assay as above. Conditions: NCI-H196, 2 h; compound alone, 100 uM, two hour incubation, control DMSO; read-out: POC (percent of control) NCI-H196.
Type: cell-based

SMILES | activity at 100 µM [%]
O=S(=O)(NCc1cscn1)c1ccc(Cl)cc1 [Compound 18, 4-chloro-N-(1,3-thiazol-4-ylmethyl)benzenesulfonamide] | 97.4

Same assay, conditions: compound 100 uM + 2DG (about 10-20 mM), two hour incubation

SMILES | POC (percent of control) NCI-H196
O=S(=O)(NCc1cscn1)c1ccc(Cl)cc1 [Compound 18, 4-chloro-N-(1,3-thiazol-4-ylmethyl)benzenesulfonamide] | 108.3% of control

Same assay, conditions: compound 100 uM + rotenone (approximately 1.25 μM), two hour incubation

SMILES | POC (percent of control) NCI-H196
O=S(=O)(NCc1cscn1)c1ccc(Cl)cc1 [Compound 18, 4-chloro-N-(1,3-thiazol-4-ylmethyl)benzenesulfonamide] | 87.3% of control

Each compound was assayed on HeLa (cervical cancer) in the same assay as above. Conditions: Homo sapiens, HeLa, 2 h; compound alone, 100 uM, two hour incubation, control DMSO; read-out: POC (percent of control) HeLa.
Type: cell-based

SMILES | activity at 100 µM [%]
O=S(=O)(NCc1cscn1)c1ccc(Cl)cc1 [Compound 18, 4-chloro-N-(1,3-thiazol-4-ylmethyl)benzenesulfonamide] | 99.5

Same assay, conditions: compound 100 uM + 2DG (about 10-20 mM), two hour incubation

SMILES | POC (percent of control) HeLa
O=S(=O)(NCc1cscn1)c1ccc(Cl)cc1 [Compound 18, 4-chloro-N-(1,3-thiazol-4-ylmethyl)benzenesulfonamide] | 100% of control

Same assay, conditions: compound 100 uM + rotenone (approximately 1.25 μM), two hour incubation

SMILES | POC (percent of control) HeLa
O=S(=O)(NCc1cscn1)c1ccc(Cl)cc1 [Compound 18, 4-chloro-N-(1,3-thiazol-4-ylmethyl)benzenesulfonamide] | 97.3% of control

Each compound was assayed on SkBr3 (breast cancer) in the same assay as above. Conditions: Homo sapiens, SK-BR-3, 2 h; compound alone, 100 uM, two hour incubation, control DMSO; read-out: POC (percent of control) SkBr3.
Type: cell-based

SMILES | activity at 100 µM [%]
O=S(=O)(NCc1cscn1)c1ccc(Cl)cc1 [Compound 18, 4-chloro-N-(1,3-thiazol-4-ylmethyl)benzenesulfonamide] | 112

Same assay, conditions: compound 100 uM + 2DG (about 10-20 mM), two hour incubation

SMILES | POC (percent of control) SkBr3
O=S(=O)(NCc1cscn1)c1ccc(Cl)cc1 [Compound 18, 4-chloro-N-(1,3-thiazol-4-ylmethyl)benzenesulfonamide] | 107.2% of control

Same assay, conditions: compound 100 uM + rotenone (approximately 1.25 μM), two hour incubation

SMILES | POC (percent of control) SkBr3
O=S(=O)(NCc1cscn1)c1ccc(Cl)cc1 [Compound 18, 4-chloro-N-(1,3-thiazol-4-ylmethyl)benzenesulfonamide] | 96.6% of control

The compounds below were run on MDA-MB (breast cancer) in the same assay as above. Conditions: 2 h; compound alone, 100 uM, two hour incubation, control DMSO; read-out: POC (percent of control) MDA-MB.
Type: cell-based

SMILES | activity at 100 µM [%]
O=S(=O)(NCc1cscn1)c1ccc(Cl)cc1 [Compound 18, 4-chloro-N-(1,3-thiazol-4-ylmethyl)benzenesulfonamide] | 102

Same assay, conditions: compound 100 uM + 2DG (about 10-20 mM), two hour incubation

SMILES | POC (percent of control) MDA-MB
O=S(=O)(NCc1cscn1)c1ccc(Cl)cc1 [Compound 18, 4-chloro-N-(1,3-thiazol-4-ylmethyl)benzenesulfonamide] | 86.1% of control

Same assay, conditions: compound 100 uM + rotenone (approximately 1.25 μM), two hour incubation

SMILES | POC (percent of control) MDA-MB
O=S(=O)(NCc1cscn1)c1ccc(Cl)cc1 [Compound 18, 4-chloro-N-(1,3-thiazol-4-ylmethyl)benzenesulfonamide] | 100% of control

Each compound was assayed on BxPC3 (pancreatic cancer) in the same assay as above. Conditions: Homo sapiens, BXPC-3, 2 h; compound alone, 100 uM, two hour incubation, control DMSO; read-out: POC (percent of control) BxPC3.
Type: cell-based

SMILES | activity at 100 µM [%]
O=S(=O)(NCc1cscn1)c1ccc(Cl)cc1 [Compound 18, 4-chloro-N-(1,3-thiazol-4-ylmethyl)benzenesulfonamide] | 100

Same assay, conditions: compound 100 uM + 2DG (about 10-20 mM), two hour incubation

SMILES | POC (percent of control) BxPC3
O=S(=O)(NCc1cscn1)c1ccc(Cl)cc1 [Compound 18, 4-chloro-N-(1,3-thiazol-4-ylmethyl)benzenesulfonamide] | 85.4% of control

Same assay, conditions: compound 100 uM + rotenone (approximately 1.25 μM), two hour incubation

SMILES | POC (percent of control) BxPC3
O=S(=O)(NCc1cscn1)c1ccc(Cl)cc1 [Compound 18, 4-chloro-N-(1,3-thiazol-4-ylmethyl)benzenesulfonamide] | 94.3% of control

The compounds below were run on T47D (breast cancer) in the same assay as above. Conditions: Homo sapiens, T47D, 2 h; compound alone, 100 uM, two hour incubation, control DMSO; read-out: POC (percent of control) T47D.
Type: cell-based

SMILES | activity at 100 µM [%]
O=S(=O)(NCc1cscn1)c1ccc(Cl)cc1 [Compound 18, 4-chloro-N-(1,3-thiazol-4-ylmethyl)benzenesulfonamide] | 95.7

Same assay, conditions: compound 100 uM + 2DG (about 10-20 mM), two hour incubation

SMILES | POC (percent of control) T47D
O=S(=O)(NCc1cscn1)c1ccc(Cl)cc1 [Compound 18, 4-chloro-N-(1,3-thiazol-4-ylmethyl)benzenesulfonamide] | 82.8% of control

Same assay, conditions: compound 100 uM + rotenone (approximately 1.25 μM), two hour incubation

SMILES | POC (percent of control) T47D
O=S(=O)(NCc1cscn1)c1ccc(Cl)cc1 [Compound 18, 4-chloro-N-(1,3-thiazol-4-ylmethyl)benzenesulfonamide] | 100.6% of control

What follows are compounds tested on H293 (kidney cancer) in the same assay as above. Conditions: 2 h; compound alone, 100 uM, two hour incubation, control DMSO; read-out: POC (percent of control) H293.
Type: cell-based

SMILES | activity at 100 µM [%]
O=S(=O)(NCc1cscn1)c1ccc(Cl)cc1 [Compound 18, 4-chloro-N-(1,3-thiazol-4-ylmethyl)benzenesulfonamide] | 67.3

Same assay, conditions: compound 100 uM + 2DG (about 10-20 mM), two hour incubation

SMILES | POC (percent of control) H293
O=S(=O)(NCc1cscn1)c1ccc(Cl)cc1 [Compound 18, 4-chloro-N-(1,3-thiazol-4-ylmethyl)benzenesulfonamide] | 96.3% of control

Same assay, conditions: compound 100 uM + rotenone (approximately 1.25 μM), two hour incubation

SMILES | POC (percent of control) H293
O=S(=O)(NCc1cscn1)c1ccc(Cl)cc1 [Compound 18, 4-chloro-N-(1,3-thiazol-4-ylmethyl)benzenesulfonamide] | 67.4% of control

These compounds were tested on MCF10A (non-cancerous breast) in the same assay as above. Conditions: Homo sapiens, MCF-10A, 2 h; compound alone, 100 uM, two hour incubation, control DMSO; read-out: POC (percent of control) MCF10A.
Type: cell-based

SMILES | activity at 100 µM [%]
O=S(=O)(NCc1cscn1)c1ccc(Cl)cc1 [Compound 18, 4-chloro-N-(1,3-thiazol-4-ylmethyl)benzenesulfonamide] | 119

Same assay, conditions: compound 100 uM + 2DG (about 10-20 mM), two hour incubation

SMILES | POC (percent of control) MCF10A
O=S(=O)(NCc1cscn1)c1ccc(Cl)cc1 [Compound 18, 4-chloro-N-(1,3-thiazol-4-ylmethyl)benzenesulfonamide] | 92.2% of control

Same assay, conditions: compound 100 uM + rotenone (approximately 1.25 μM), two hour incubation

SMILES | POC (percent of control) MCF10A
O=S(=O)(NCc1cscn1)c1ccc(Cl)cc1 [Compound 18, 4-chloro-N-(1,3-thiazol-4-ylmethyl)benzenesulfonamide] | 86.9% of control

These compounds were tested on HDF (normal cells) in the same assay as above. Conditions: 2 h; compound alone, 100 uM, two hour incubation, control DMSO; read-out: POC (percent of control) HDF.
Type: cell-based

SMILES | activity at 100 µM [%]
O=S(=O)(NCc1cscn1)c1ccc(Cl)cc1 [Compound 18, 4-chloro-N-(1,3-thiazol-4-ylmethyl)benzenesulfonamide] | 96.1

Same assay, conditions: compound 100 uM + 2DG (about 10-20 mM), two hour incubation

SMILES | POC (percent of control) HDF
O=S(=O)(NCc1cscn1)c1ccc(Cl)cc1 [Compound 18, 4-chloro-N-(1,3-thiazol-4-ylmethyl)benzenesulfonamide] | 93% of control

Same assay, conditions: compound 100 uM + rotenone (approximately 1.25 μM), two hour incubation

SMILES | POC (percent of control) HDF
O=S(=O)(NCc1cscn1)c1ccc(Cl)cc1 [Compound 18, 4-chloro-N-(1,3-thiazol-4-ylmethyl)benzenesulfonamide] | 95.7% of control

These compounds were tested on MCF7 (breast cancer) in the same assay as above. Conditions: Homo sapiens, MCF7, 2 h; compound alone, 100 uM, two hour incubation, control DMSO; read-out: POC (percent of control) MCF7.
Type: cell-based

SMILES | activity at 100 µM [%]
O=S(=O)(NCc1cscn1)c1ccc(Cl)cc1 [Compound 18, 4-chloro-N-(1,3-thiazol-4-ylmethyl)benzenesulfonamide] | 110

Same assay, conditions: compound 100 uM + 2DG (about 10-20 mM), two hour incubation

SMILES | POC (percent of control) MCF7
O=S(=O)(NCc1cscn1)c1ccc(Cl)cc1 [Compound 18, 4-chloro-N-(1,3-thiazol-4-ylmethyl)benzenesulfonamide] | 137.3% of control

Same assay, conditions: compound 100 uM + rotenone (approximately 1.25 μM), two hour incubation

SMILES | POC (percent of control) MCF7
O=S(=O)(NCc1cscn1)c1ccc(Cl)cc1 [Compound 18, 4-chloro-N-(1,3-thiazol-4-ylmethyl)benzenesulfonamide] | 82% of control
